The record followed here is publication PMC9574862, “Designing Soluble PROTACs: Strategies and Preliminary Guidelines” (Journal of Medicinal Chemistry, 2022).

This series is described as follows: Thermodynamic solubility, shake-flask, 10 mM PBS (0.15 M KCl) pH 7, 25 °C, 1 h, HPLC-UV. The conditions noted are these: for solubility at 1 h / Solubility (in words) / Classification (GSK guidelines): pH 7, 25 °C; for Classification (GSK guidelines): solubility class. Here is the method:
Its measurement only requires an initial DMSO stock solution which is precipitated by the addition of an aqueous phase.[23],[24] Here, we measured thermodynamic solubility, often determined in late lead optimization, which efficiently considers the solubility value when the equilibrium with the stable phase or polymorph has been reached.
Solubility was determined in 10 mM PBS (0.15 M KCl) at pH 7, 25 °C. A 1–2 mg sample of each molecule was added to the same quantity (1–2 mL) of the mentioned buffer to obtain 1 mg/mL solutions in the vial. Samples were then submitted to 25 °C and magnetic stirring (500 rpm) for 1 h. After this period, solutions or suspensions were filtered through the 0.45 μm membrane pore and diluted with buffer, 10 mM PBS (0.15 M KCl). The amount of dissolved compound in each sample was then quantified, in duplicate, via HPLC using ultraviolet (UV) spectrometric detection.
Variable volumes of pure DMSO (0–100 μL) were added separately to small and defined (1 mg) quantities of each compound to obtain clear solutions. […] Afterward, 5% DMSO 10 mM PBS (0.15 M KCl) was added until the suspensions or precipitations were redissolved, to render clear solutions. As soon as solutions were obtained, they were used as mother solutions for the performance of 5–10 point calibration curves with serial buffer dilutions (1:1; v/v) 5% DMSO 10 mM PBS (0.15 M KCl). Calibration points were then measured via HPLC-UV.
The mobile phase consisted of a solution of acetonitrile (ACN) and 20 mM ammonium acetate buffer (AAB), pH 7, freshly prepared. A 10 μL volume of each sample (volume of injection) was injected at an isocratic 1 mL/min flow rate analyzed at 30 °C (oven temperature). Solubility determination of each compound required a specific HPLC method. Settings are collected in Table S11 (PROTACs) and Table S10 (building blocks).
Injections were performed in duplicate for each molecule’s calibration points. The retention time and area under the curve (AUC in absorbance units) were collected, and the average was calculated. The AUC average (y-axis) was plotted versus theoretical concentration (mg/mL; x-axis) to obtain a calibration curve for each molecule. Correlation equations and coefficients (R^2) were efficiently calculated for each compound (Table S12 for PROTACs and Table S10 for building blocks). Samples were then injected in duplicate, and the AUC averages and standard deviations were calculated. Finally, the absorbance averages were interpolated into the corresponding equations, extracting the final solubility values with their standard deviation, after dilution factor corrections.

Where [1] appears, read: 25 °C, pH 7, aqueous buffer, thermodynamic from solid, Solubility average, thermodynamic, shake-flask, 1 h.
Setting [2] is: pH 7, aqueous buffer, thermodynamic from solid.
Setting [3] is: 25 °C, pH 7, aqueous buffer, thermodynamic from solid, Exp.LogS, PROTAC pairs and building blocks.
Where [4] appears, read: 25 °C, pH 7, aqueous buffer, thermodynamic from solid, Solubility, Table S-3.
The mark [5] stands for this setting: 25 °C, pH 7, aqueous buffer, thermodynamic from solid, Solubility log S, Table S-3.
Where [6] appears, read: pH 7, Exp.LogS, PROTAC pairs and building blocks.

≈ marks a conversion by molar mass, not a printed value.

In the case of `Cc1ncsc1-c1ccc(CNC(=O)[C@@H]2C[C@@H](O)CN2C(=O)[C@@H](NC(=O)C2(F)CC2)C(C)(C)C)c(OCCOc2ccc(CN3CCN(c4cc(-c5ccccc5O)nnc4N)CC3)cc2)c1` [ACBI1], the “Solubility (in words)” value is listed as “below the quantification limit” and the “Classification (GSK guidelines)” value is given as “Low (< 30 μM) (Low (< 30 μM))”. For the same compound, the solubility (in general, the dissolved amount per volume that the medium holds) at 1 h under setting [1] is < 0.72 µM. In addition, the thermodynamic solubility (in general, solubility found after equilibrating the solid with the medium) at 1 h under setting [2] is < 0.68 µg/mL.

`Cc1sc2c(c1C)C(c1ccc(Cl)cc1)=N[C@@H](CC(=O)Nc1ccc(OCCOCCOCCOCCNc3cccc4c3C(=O)N(C3CCC(=O)NC3=O)C4=O)cc1)c1nnc(C)n1-2` (some centres unmarked) [ARV-825]: the “Solubility (in words)” value was “below the quantification limit” and the “Classification (GSK guidelines)” value is on record as “Low (< 30 μM) (Low (< 30 μM))”. Besides, the solubility at 1 h under setting [1] was < 0.32 µM. Besides, the thermodynamic solubility at 1 h under setting [2] was < 0.29 µg/mL.

With `COc1cc(C(=O)NCCOCCOCCOCC(=O)N[C@H](C(=O)N2C[C@H](O)C[C@H]2C(=O)NCc2ccc(-c3scnc3C)cc2)C(C)(C)C)ccc1Nc1ncc(C(F)(F)F)c(Oc2cccc3c2C(=O)CC3)n1` [BI-0319], the “Classification (GSK guidelines)” value is recorded as “Low (< 30 μM) (Low (< 30 μM))”. The solubility at 1 h under setting [3] was 2.63 µM. Under setting [1], this compound came in with a solubility at 1 h of 2.63 µM. This compound showed a thermodynamic solubility at 1 h under setting [2] of 2.78 µg/mL (≈ 2.62 µM).

With `COc1cc(C(=O)NCCOCCOCCOCCC(=O)Nc2cccc3c2C(=O)N(C2CCC(=O)NC2=O)C3=O)ccc1Nc1ncc(C(F)(F)F)c(Oc2cccc3c2C(=O)CC3)n1` (centres unmarked) [BI-3663], the “Classification (GSK guidelines)” value is “Low (< 30 μM) (Low (< 30 μM))”. This compound also showed a solubility at 1 h under setting [3] of 6.92 µM. Also, the solubility at 1 h under setting [1] came to 6.92 µM. The compound also showed a solubility at 1 h under setting [4] of 10 µg/mL.

For the compound `COc1cc(C(=O)NCCOCCOCCOCC(=O)N[C@H](C(=O)N2C[C@@H](O)C[C@H]2C(=O)NCc2ccc(-c3scnc3C)cc2)C(C)(C)C)ccc1Nc1ncc(C(F)(F)F)c(Oc2cccc3c2C(=O)CC3)n1` [BI-4206], the “Classification (GSK guidelines)” value is listed as “Low (< 30 μM) (Low (< 30 μM))”. This compound gave a solubility at 1 h under setting [3] of 0.575 µM. Moreover, under setting [1], the solubility at 1 h turned out to be 0.58 µM. For the same compound, the solubility (thermodynamic) at 1 h under setting [2] is 0.606 µg/mL (≈ 0.571 µM).

With `CC(=O)c1c(C)c2cnc(Nc3ccc(N4CCN(CCOCCOCCOCCNC(=O)COc5cccc6c5C(=O)N(C5CCC(=O)NC5=O)C6=O)CC4)cn3)nc2n(C2CCCC2)c1=O` (centres unmarked) [BSJ-03-123], the “Classification (GSK guidelines)” value is on record as “Low (< 30 μM) (Low (< 30 μM))”. Under setting [1], this compound showed a solubility at 1 h of 17.8 µM. The same compound gave a solubility at 1 h under setting [5] of 17.8 µM. Under setting [4], this compound had a solubility at 1 h of 20 µg/mL.

With `Cc1ncsc1-c1ccc(CNC(=O)[C@@H]2C[C@@H](O)CN2C(=O)[C@@H](NC(=O)CCCCOCCCCCOCCCCCCNc2cccc3c2C(=O)N(C2CCC(=O)NC2=O)C3=O)C(C)(C)C)cc1` (some centres unmarked) [CRBN-6-5-5-VHL], the “Classification (GSK guidelines)” value is listed as “Low (< 30 μM) (Low (< 30 μM))”. Further, under setting [1], the solubility at 1 h was determined as 1.23 µM. Also, the solubility at 1 h under setting [5] was 1.23 µM. The solubility (thermodynamic) at 1 h under setting [2] was 1.19 µg/mL (≈ 1.22 µM).

Turning to `Cc1ncsc1-c1ccc(CNC(=O)[C@@H]2C[C@H](O)CN2C(=O)[C@@H](NC(=O)C2(F)CC2)C(C)(C)C)c(OCCOc2ccc(CN3CCN(c4cc(-c5ccccc5O)nnc4N)CC3)cc2)c1` [CisACBI1], the “Solubility (in words)” value is reported as “below the quantification limit” and the “Classification (GSK guidelines)” value was “Low (< 30 μM) (Low (< 30 μM))”. Under setting [1], the solubility at 1 h was < 0.87 µM. Further, the solubility at 1 h under setting [5] is < 0.871 µM. The solubility (thermodynamic) at 1 h under setting [2] was < 0.817 µg/mL.

Regarding `Cc1ncsc1-c1ccc(CNC(=O)[C@@H]2C[C@H](O)CN2C(=O)[C@@H](NC(=O)COCCOCCOCCNC(=O)C[C@@H]2N=C(c3ccc(Cl)cc3)c3c(sc(C)c3C)-n3c(C)nnc32)C(C)(C)C)cc1` [CisMZ1], the “Classification (GSK guidelines)” value is on record as “Intermediate (30–200 μM) (Intermediate (30–200 μM))”. Under setting [1], the concentration in solution (solubility at 1 h) was 50.1 µM. Further, under setting [5], the solubility at 1 h was 50.1 µM. The compound also registered a solubility at 1 h under setting [4] of 50 µg/mL.

In the case of `COc1cc2ncnc(Nc3ccc(F)c(Cl)c3)c2cc1OCCCCCOCCOCCC(=O)N[C@H](C(=O)N1C[C@H](O)C[C@H]1C(=O)NCc1ccc(-c2scnc2C)cc1)C(C)(C)C` [Gefitinib-based PROTAC 3], the “Classification (GSK guidelines)” value is “Low (< 30 μM) (Low (< 30 μM))”. For the same compound, under setting [1], the concentration in solution (solubility at 1 h) was 1.23 µM. The same compound had a solubility at 1 h under setting [5] of 1.23 µM. In addition, the thermodynamic solubility at 1 h under setting [2] came to 1.14 µg/mL (≈ 1.22 µM).

Take `O=C1CCC(N2Cc3c(C#CCCCNC(=O)c4ccc(NC(=O)[C@@H]5NC6(CCCCC6)[C@@]6(C(=O)Nc7cc(Cl)ccc76)[C@H]5c5cccc(Cl)c5F)cc4)cccc3C2=O)C(=O)N1` (some centres unmarked) [MD-224]: the “Solubility (in words)” value is “below the quantification limit” and the “Classification (GSK guidelines)” value is “Low (< 30 μM) (Low (< 30 μM))”. For the same compound, under setting [1], the solubility at 1 h was < 0.23 µM. Besides, the solubility at 1 h under setting [5] is < 0.229 µM. For the same compound, under setting [2], the thermodynamic solubility at 1 h is < 0.289 µg/mL.

As for `Cc1ncsc1-c1ccc(CNC(=O)[C@@H]2C[C@@H](O)CN2C(=O)[C@@H](NC(=O)COCCOCCOCCNC(=O)C[C@@H]2N=C(c3ccc(Cl)cc3)c3c(sc(C)c3C)-n3c(C)nnc32)C(C)(C)C)cc1` [MZ1], the “Classification (GSK guidelines)” value is “Intermediate (30–200 μM) (Intermediate (30–200 μM))”. This compound also gave a solubility at 1 h under setting [3] of 38 µM. The compound also had a solubility at 1 h under setting [1] of 38 µM. Under setting [4], this compound gave a solubility at 1 h of 40 µg/mL.

On to `CC(=O)N1c2ccc(-c3ccc(C(=O)NCCOCCOCCOCC(=O)N[C@H](C(=O)N4C[C@H](O)C[C@H]4C(=O)NCc4ccc(-c5scnc5C)cc4)C(C)(C)C)cc3)cc2[C@H](Nc2ccc(Cl)cc2)C[C@@H]1C` [MZP-54], for which the “Classification (GSK guidelines)” value is given as “Low (< 30 μM) (Low (< 30 μM))”. For the same compound, the concentration in solution under setting [3] (solubility at 1 h) came to 0.513 µM. The same compound came in with a solubility at 1 h under setting [1] of 0.51 µM. The compound further came in with a solubility (thermodynamic) at 1 h under setting [2] of 0.528 µg/mL (≈ 0.509 µM).

Consider `O=C(CCCCC(=O)NCCN1C(=O)c2cccc3c(Sc4ccc(Br)cc4)ccc(c23)C1=O)NCCCCCCNc1cccc2c1C(=O)N(C1CCC(=O)NC1=O)C2=O` (centres unmarked) [Mcl1 degrader-1], for which the “Solubility (in words)” value is “below the quantification limit” and the “Classification (GSK guidelines)” value is reported as “Low (< 30 μM) (Low (< 30 μM))”. For the same compound, the solubility at 1 h under setting [1] was < 0.87 µM. Also, under setting [5], the solubility at 1 h is < 0.871 µM. Further, the thermodynamic solubility at 1 h under setting [2] is < 0.793 µg/mL.

On to `CC(C)(C)c1cnc(CSc2cnc(NC(=O)C3CCN(CC(=O)NCCOCCOCCOCCNc4cccc5c4C(=O)N(C4CCC(=O)NC4=O)C5=O)CC3)s2)o1` (centres unmarked) [THAL-SNS-032], for which the “Classification (GSK guidelines)” value is “Intermediate (30–200 μM) (Intermediate (30–200 μM))”. The compound further came in with a solubility at 1 h under setting [1] of 52.5 µM. The amount in solution under setting [5] (solubility at 1 h) came to 52.5 µM. Under setting [4], this compound came in with a solubility at 1 h of 50 µg/mL.

On to `COc1cc(-c2cn(C)c(=O)c3cnccc23)cc(OC)c1CN1CCN(CCCCCOc2cc(-c3scnc3C)ccc2CNC(=O)[C@@H]2C[C@@H](O)CN2C(=O)[C@@H](NC(=O)C2(F)CC2)C(C)(C)C)CC1` [VZ185], for which the “Classification (GSK guidelines)” value is reported as “Intermediate (30–200 μM) (Intermediate (30–200 μM))”. The concentration in solution under setting [1] (solubility at 1 h) was 50.1 µM. In addition, the solubility at 1 h under setting [5] was 50.1 µM. The solubility at 1 h under setting [4] was found to be 50 µg/mL.

For `COC(=O)C[C@@H]1N=C(c2ccc(Cl)cc2)c2c(sc(C(=O)NCCCCCNc3cccc4c3C(=O)N(C3CCC(=O)NC3=O)C4=O)c2C)-n2c(C)nnc21` (some centres unmarked) [ZXH-3-26], the “Classification (GSK guidelines)” value is “Low (< 30 μM) (Low (< 30 μM))”. Under setting [1], this compound registered a solubility at 1 h of 2.95 µM. Moreover, the solubility at 1 h under setting [6] was 2.95 µM.

For `Cc1sc2c(c1C)C(c1ccc(Cl)cc1)=N[C@@H](CC(=O)NCCNc1cccc3c1C(=O)N(C1CCC(=O)NC1=O)C3=O)c1nnc(C)n1-2` (some centres unmarked) [dBET57], the “Classification (GSK guidelines)” value is listed as “Intermediate (30–200 μM) (Intermediate (30–200 μM))”. In addition, the solubility at 1 h under setting [1] worked out at 30.2 µM. The compound further gave a solubility at 1 h under setting [4] of 20 µg/mL. The compound also gave a solubility at 1 h under setting [6] of 30.2 µM.
